The results in this text go back to ChEMBL document CHEMBL4184116, “New butenolide derivatives from the marine sponge-derived fungus Aspergillus terreus” (Bioorg Med Chem Lett, 2018).

One test deals with Alpha glucosidase (Homo sapiens, UniProt O43451+P10253+P14410+Q2M2H8). As to the kind of experiment: Inhibition of alpha-glucosidase (unknown origin) using p-nitro-phenyl-alpha-D-glucopyranoside as substrate preincubated for 5 mins with substrate followed by enzyme addition measure after 15 mins by spectrophotometric method. Type of test: protein assay.
The nature of test [1]: Antioxidant activity assessed as DPPH radical scavenging activity incubated for 30 mins under dark condition by spectrophotometric analysis. The format is functional. In general terms: Loss of DPPH colour is used to gauge radical scavenging.
A short description of test [2]: Antioxidant activity assessed as DPPH radical scavenging activity incubated for 30 mins under dark condition. The format is functional.

SMILES strings stand for the structures.

As usually defined, the IC50 is the concentration that inhibits the measured activity by half. Consider `CC1(C)CCc2cc(CC3=C(c4ccc(O)cc4)C(O)OC3=O)ccc2O1` (configuration not stated), for which the results for the IC50 (at Alpha glucosidase; in test [1]) were 13.36 µM and above 200 µM, respectively.

In the case of `COC(=O)[C@]1(Cc2ccc3c(c2)C[C@H](C(C)(C)O)O3)OC(=O)C(O)=C1c1ccc(O)cc1` [BUTYROLACTONE IV], the IC50 is above 400 µM against Alpha glucosidase and 129 µM in test [1]. Turning to `COC(=O)[C@@]1(O)OC(=O)C(Cc2ccc3c(c2)CCC(C)(C)O3)=C1c1ccc(O)cc1`, the half-maximal inhibitory concentration (IC50) is 10.3 µM at Alpha glucosidase and above 200 µM in test [1]. The corresponding values for `COC(=O)[C@]1(Cc2ccc3c(c2)CCC(C)(C)O3)OC(=O)C(O)=C1c1ccc(O)cc1` are 47.33 µM and 97 µM. The corresponding values for `CC1(C)CCc2cc(CC3=C(c4ccc(O)cc4)[C@@](O)(C(=O)O)OC3=O)ccc2O1` are 7.63 µM and above 200 µM. On to `CC(=O)N[C@@H](CS)C(=O)O` [ACETYLCYSTEINE], for which, in test [1], the IC50 was 85 µM. As for `COC(=O)[C@]1(Cc2ccc(O)cc2)OC(=O)C(O)=C1c1ccc(O)cc1`, the half-inhibitory concentration (IC50) on Alpha glucosidase worked out at 85.13 µM; in test [1], 86 µM. The corresponding values for `COC(=O)[C@]1(Cc2ccc(O)c(CC=C(C)C)c2)OC(=O)C(O)=C1c1ccc(O)cc1` are 14.18 µM and 38 µM. For the compound `COC(=O)[C@]1(Cc2ccc(O)c(CC=C(C)C)c2)OC(=O)C(OC)=C1c1ccc(O)cc1`, the IC50 in test [2] was 125 µM.

As to `CO[C@H]1OC(=O)C(Cc2ccc(O)c(CC=C(C)C)c2)=C1c1ccc(O)cc1`, the IC50 is 8.65 µM against Alpha glucosidase and above 200 µM in test [1]. Taken in the same sequence, the figures for `CC1(C)CCc2cc(CC3OC(=O)C(O)=C3c3ccc(O)cc3)ccc2O1` (configuration not stated) were 11.65 µM and 90 µM. The corresponding values for `O=C1O/C(=C\c2ccc(O)cc2)C(O)=C1c1ccc(O)cc1` [ASPULVINONE E] are above 400 µM and 106 µM. Taken in the same sequence, the figures for `CO[C@@H]1OC(=O)C(Cc2ccc(O)c(CC=C(C)C)c2)=C1c1ccc(O)cc1` were 9.98 µM and above 200 µM.

On to `COC(=O)[C@]1(Cc2ccc3c(c2)C[C@H](O)C(C)(C)O3)OC(=O)C(OC)=C1c1ccc(O)cc1`, for which the IC50 in test [2] was above 500 µM. With `COC(=O)[C@]1(Cc2ccc3c(c2)C[C@@H](O)C(C)(C)O3)OC(=O)C(O)=C1c1ccc(O)cc1`, the IC50 at Alpha glucosidase came out at 110.27 µM; in test [1], 135 µM.
